Source: US20040063763A1, “2-METHOXYIMINO-2(PYRIDINYLOXYMETHYL)PHENYL ACETAMIDES USEFUL AS FUNGICIDES” (priority 2003, published 2004)

How the values were obtained:
Format in all cases: in vivo
Phytophthora infestans = details: 100 ppm spray to run off, tomatoes (cultivar Rutgers), inoculated after 24 hours
Puccinia recondita = assay: Brown rust of wheat 1-day protectant whole plant test (PUCCRT 1DP); details: 100 ppm spray to run off, wheat (cultivar Monon), inoculated after 24 hours
Erysiphe graminis = assay: Powdery Mildew of Wheat 1-day protectant whole plant test (ERYSGT 1DP); details: 100 ppm spray to run off, wheat (cultivar Monon), inoculated after 24 hours

CNC(=O)/C(=N/OC)c1ccccc1COc1ncc(C2=NOCC2)cc1C [Compound 1, (2E)-2-[2˜({[5-(4,5-dihydroisoxazol-3-yl)-3-methylpyridin-2-yl]oxy}methyl)phenyl]-2-(methoxyimino)-N-methylethanamide]
>95%: PHYTIN 1DP percent control of the plant disease (Phytophthora infestans) | PUCCRT 1DP percent control of the plant disease (Puccinia recondita) | ERYSGT 1DP percent control of the plant disease (Erysiphe graminis)
